# Values of other authors in publication PMC12122562, “Phase 1 studies of the indenoisoquinolines LMP776 and LMP744 in patients with solid tumors and lymphomas” (Cancer Chemotherapy and Pharmacology, 2025).
# Like-named read-outs stand apart in the source and are kept apart here.
# Columns and labels:
# [1] = tested on: patients with advanced solid tumors; conditions: cited from earlier work
# [2] = tested on: advanced solid tumors; parameters: method as in PMID 27169793; conditions: cited from earlier work
# [3] = tested on: naturally occurring lymphomas; parameters: method as in PMID 30061364; conditions: canines with lymphomas; cited from earlier work
# [4] = tested on: PTEN-null glioblastoma cells; parameters: method as in PMID 37706203; conditions: combined with the PARP inhibitor niraparib; cited from earlier work
structure (smiles),measurement,setting,value
COc1cc2c3c(n(CCCN4CCOCC4)c(=O)c2cc1OC)-c1cc2c(cc1C3=O)OCO2 [LMP400],"Nausea, prevalence",[1],5%
same,"Alanine aminotransferase increased, patients","[1]; grade 2, n=21, ref 1 (suppl.)",3
same,"Anemia, patients","[1]; grade 2, n=21, ref 1 (suppl.)",8
same,"Aspartate aminotransferase increased, patients","[1]; grade 2, n=21, ref 1 (suppl.)",2
same,"Blood bilirubin increased, patients","[1]; grade 2, n=21, ref 1 (suppl.)",2
same,"Diarrhea, patients","[1]; grade 2, n=21, ref 1 (suppl.)",1
same,"Dyspepsia, patients","[1]; grade 2, n=21, ref 1 (suppl.)",1
same,"Fatigue, patients","[1]; grade 2, n=21, ref 1 (suppl.)",3
same,"Hyperkalemia, patients","[1]; grade 2, n=21, ref 1 (suppl.)",1
same,"Hypophosphatemia, patients","[1]; grade 2, n=21, ref 1 (suppl.)",1
same,"Lethargy, patients","[1]; grade 2, n=21, ref 1 (suppl.)",1
same,"Lymphocyte count decreased, patients","[1]; grade 2, n=21, ref 1 (suppl.)",4
same,"Nausea, patients","[1]; grade 2, n=21, ref 1 (suppl.)",1
same,"Neutropenia, patients","[1]; grade 2, n=21, ref 1 (suppl.)",1
same,"Weight loss, patients","[1]; grade 2, n=21, ref 1 (suppl.)",1
same,"White blood cell count decreased, patients","[1]; grade 2, n=21, ref 1 (suppl.)",1
same,"Anemia, patients","[1]; grade 3, n=21, ref 1 (suppl.)",2
same,"Fatigue, patients","[1]; grade 3, n=21, ref 1 (suppl.)",1
same,"Febrile Neutropenia, patients","[1]; grade 3, n=21, ref 1 (suppl.)",2
same,"Lymphocyte count decreased, patients","[1]; grade 3, n=21, ref 1 (suppl.)",3
same,"White blood cell count decreased, patients","[1]; grade 3, n=21, ref 1 (suppl.)",1
same,"Neutropenia, patients","[1]; grade 4, n=21, ref 1 (suppl.)",3
same,"Platelet count decreased, patients","[1]; grade 4, n=21, ref 1 (suppl.)",3
same,"White blood cell count decreased, patients","[1]; grade 4, n=21, ref 1 (suppl.)",2
same,Best response,[2],stable disease
same,Responders,[3],9 of 27
same,Response rate,[3],33.3%
same,Cell killing activity in combination,[4],synergistic cell killing activity
